Structures are written as SMILES.

One test deals with Lox-IMVI melanoma cell line. The test is described as follows: Lox-IMVI anti-proliferative assay (growth inhibition, Cell Titer-Glo). As to conditions: Homo sapiens; IC50 activity level in the cell-based Lox-IMVI anti-proliferative assay; read-out: Activity. Format: cell-based, human. Put shortly:
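Cells grown in RPMI + 10% FBS were exposed to compound at 0.5 nM to 10 μM (10-point, 3-fold dilution, duplicate, 0.2% DMSO final) for 72 h at 37 °C, 5% CO2. Viability was read by ATP luminescence at t0 and 72 h. IC50 came from a four-parameter logistic fit normalized to DMSO control.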
(In general: In ATP-based viability assays light output follows the ATP content of the culture.)
Consider `NC(=O)[C@H]1CC[C@@H](n2c(Nc3c(F)cccc3Cl)nc3cnc(NC4CCC(F)(F)CC4)nc32)CC1` [Example 235, (1s,4s)-4-(8-(2-chloro-6-fluorophenylamino)-2-(4,4-difluorocyclohexylamino)-9H-purin-9-yl)cyclohexanecarboxamide], for which the IC50 fell in the range of 0.5 to 1 µM.
On the same count and under the same terms, the result for `NC(=O)[C@H]1CC[C@@H](n2c(Nc3c(Cl)cc(Cl)cc3Cl)nc3cnc(N[C@H]4CCC[C@@H](O)C4)nc32)CC1` [Example 373, (1R,4s)-4-(2-((1S,3R)-3-hydroxycyclohexylamino)-8-(2,4,6-trichlorophenylamino)-9H-purin-9-yl)cyclohexanecarboxamide] reads 0.5 to 1 µM.
On to `NC(=O)[C@H]1CC[C@@H](n2c(Nc3c(Cl)cc(F)cc3Cl)nc3cnc(N[C@H]4CCC[C@@H](O)C4)nc32)CC1` [Example 374, (1R,4s)-4-(8-(2,6-dichloro-4-fluorophenylamino)-2-((1S,3R)-3-hydroxycyclohexylamino)-9H-purin-9-yl)cyclohexanecarboxamide], for which the IC50 was over 1 µM.
The same measure, in the same setting: the result for `NC(=O)[C@H]1CC[C@@H](n2c(Nc3c(Cl)cc(F)cc3Cl)nc3cnc(NC4COCC4O)nc32)CC1` (stereo partly drawn) [Example 183, (1s,4s)-4-(8-(2,6-dichloro-4-fluorophenylamino)-2-(4-hydroxytetrahydrofuran-3-ylamino)-9H-purin-9-yl)cyclohexanecarboxamide] reads over 1 µM; that for `N#Cc1cc(Cl)c(Nc2nc3cnc(NC4CCC(F)(F)CC4)nc3n2[C@H]2CC[C@@H](C(N)=O)CC2)c(Cl)c1` [Example 397, (1s,4s)-4-(8-(2,6-dichloro-4-cyanophenylamino)-2-(4,4-difluorocyclohexylamino)-9H-purin-9-yl)cyclohexanecarboxamide], under 0.25 µM; that for `NC(=O)[C@H]1CC[C@@H](n2c(Nc3ccc(F)c(F)c3F)nc3cnc(NC4CCOCC4)nc32)CC1` [Example 66, (1s,4s)-4-(2-(tetrahydro-2H-pyran-4-ylamino)-8-(2,3,4-trifluorophenylamino)-9H-purin-9-yl)cyclohexanecarboxamide], 0.5 to 1 µM.
Consider `CC[C@@H](CO)Nc1ncc2nc(Nc3c(Cl)cccc3Cl)n([C@H]3CC[C@@H](C(N)=O)CC3)c2n1` [Example 153, (1R,4s)-4-(8-(2,6-dichlorophenylamino)-2-((S)-1-hydroxybutan-2-ylamino)-9H-purin-9-yl)cyclohexanecarboxamide], for which the IC50 is over 1 µM.
Same read-out and setting: the result for `NC(=O)[C@H]1CC[C@@H](n2c(Nc3c(F)cc(F)cc3F)nc3cnc(N[C@@H]4CCC[C@H](O)C4)nc32)CC1` [Example 347, (1S,4s)-4-(2-((1R,3S)-3-hydroxycyclohexylamino)-8-(2,4,6-trifluorophenylamino)-9H-purin-9-yl)cyclohexanecarboxamide] reads over 1 µM.
Same read-out and setting: the result for `NC(=O)[C@H]1CC[C@@H](n2c(Nc3c(Cl)cc(F)cc3Cl)nc3cnc(N[C@@H]4COC[C@H]4O)nc32)CC1` [Example 315, (1S,4s)-4-(8-(2,6-dichloro-4-fluorophenylamino)-2-((3R,4S)-4-hydroxytetrahydrofuran-3-ylamino)-9H-purin-9-yl)cyclohexanecarboxamide] reads over 1 µM; that for `NC(=O)[C@H]1CC[C@@H](n2c(Nc3c(F)cc(F)cc3Cl)nc3cnc(NC4CCOCC4)nc32)CC1` [Example 53], under 0.25 µM; that for `CC1(C)CC[C@@H](Nc2ncc3nc(Nc4c(F)cc(F)cc4F)n([C@H]4CC[C@@H](C(N)=O)CC4)c3n2)C[C@H]1O` [Example 381, (1S,4s)-4-(2-((1R,3R)-3-hydroxy-4,4-dimethylcyclohexylamino)-8-(2,4,6-trifluorophenylamino)-9H-purin-9-yl)cyclohexanecarboxamide], over 1 µM.

Still in this test, the particulars now being: Homo sapiens; Lox-IMVI anti-proliferative assay, IC50 activity level; read-out: Activity.
As to `COC(=O)N1CCCC(Nc2ncc3nc(Nc4c(F)cccc4Cl)n([C@H]4CC[C@@H](C(N)=O)CC4)c3n2)C1` (stereo partly drawn) [Example 406, (R)-methyl 3-(9-((1s,4S)-4-carbamoylcyclohexyl)-8-(2-chloro-6-fluorophenylamino)-9H-purin-2-ylamino)piperidine-1-carboxylate], the IC50 was over 1 µM.
On the same count and under the same terms, the result for `NC(=O)[C@H]1CC[C@@H](n2c(Nc3c(Cl)cc(F)cc3Cl)nc3cnc(N[C@H]4CCC(F)(F)C4)nc32)CC1` [Example 585, (1R,4s)-4-(8-(2,6-dichloro-4-fluorophenylamino)-2-((S)-3,3-difluorocyclopentylamino)-9H-purin-9-yl)cyclohexanecarboxamide] reads 0.5 to 1 µM; that for `N#Cc1cc(Cl)c(Nc2nc3cnc(N[C@@H]4CCC[C@H](O)C4)nc3n2[C@H]2CC[C@@H](C(N)=O)CC2)c(Cl)c1` [Example 455, (1S,4s)-4-(8-(2,6-dichloro-4-cyanophenylamino)-2-((1R,3S)-3-hydroxycyclohexylamino)-9H-purin-9-yl)cyclohexanecarboxamide], under 0.25 µM.
Consider `C[C@@H](CO)Nc1ncc2nc(Nc3c(Cl)cc(Cl)cc3Cl)n([C@H]3CC[C@@](C)(C(N)=O)CC3)c2n1` [Example 549, (1R,4s)-4-(2-((S)-1-hydroxypropan-2-ylamino)-8-(2,4,6-trichlorophenylamino)-9H-purin-9-yl)-1-methylcyclohexanecarboxamide], for which the IC50 was under 0.25 µM.
The same measure, in the same setting: the result for `C[C@]1(C(N)=O)CC[C@H](n2c(Nc3c(F)cc(F)cc3Cl)nc3cnc(NC4CCC(F)(F)CC4)nc32)CC1` [Example 477, (1r,4r)-4-(8-(2-chloro-4,6-difluorophenylamino)-2-(4,4-difluorocyclohexylamino)-9H-purin-9-yl)-1-methylcyclohexanecarboxamide] reads over 1 µM.
Same read-out and setting: the result for `C[C@@H](CO)Nc1ncc2nc(Nc3c(F)cc(Cl)cc3F)n([C@H]3CC[C@@](C)(C(N)=O)CC3)c2n1` [Example 550, (1R,4s)-4-(8-(4-chloro-2,6-difluorophenylamino)-2-((S)-1-hydroxypropan-2-ylamino)-9H-purin-9-yl)-1-methylcyclohexanecarboxamide] reads under 0.25 µM; that for `NC(=O)[C@H]1CC[C@@H](n2c(Nc3c(F)cc(F)cc3F)nc3cnc(N[C@@H]4CCOC4)nc32)CC1` [Example 530, (1S,4s)-4-(2-((R)-tetrahydrofuran-3-ylamino)-8-(2,4,6-trifluorophenylamino)-9H-purin-9-yl)cyclohexanecarboxamide], 0.5 to 1 µM.
Same read-out and setting: the result for `N#Cc1cc(Cl)c(Nc2nc3cnc(N[C@H](CO)C(F)(F)F)nc3n2[C@H]2CC[C@@H](C(N)=O)CC2)c(Cl)c1` [Example 472, (1S,4s)-4-(8-(2,6-dichloro-4-cyanophenylamino)-2-((R)-1,1,1-trifluoro-3-hydroxypropan-2-ylamino)-9H-purin-9-yl)cyclohexanecarboxamide] reads over 1 µM.

The test is the same for the next values; noted with them: Homo sapiens; Lox-IMVI melanoma cell line, anti-proliferative assay; read-out: Activity (IC50 activity level).
Consider `CC(C)OC(=O)N1CCC[C@@H](Nc2ncc3nc(Nc4c(Cl)cc(F)cc4Cl)n([C@H]4CC[C@@H](C(N)=O)CC4)c3n2)C1` [Example 775, (R)-isopropyl 3-(9-((1s,4S)-4-carbamoylcyclohexyl)-8-(2,6-dichloro-4-fluorophenylamino)-9H-purin-2-ylamino)piperidine-1-carboxylate], for which the IC50 was over 1 µM.
On to `C[C@]1(C(N)=O)CC[C@@H](n2c(Nc3c(F)cc(Cl)cc3Cl)nc3cnc(N[C@@H]4CCC[C@@H](O)C4)nc32)CC1` [Example 620, (1S,4s)-4-(8-(2,4-dichloro-6-fluorophenylamino)-2-((1R,3R)-3-hydroxycyclohexylamino)-9H-purin-9-yl)-1-methylcyclohexanecarboxamide], for which the IC50 fell in the range of 0.5 to 1 µM.
As to `N#Cc1cc(Cl)c(Nc2nc3cnc(NC4CCC(N5C(=O)CCC5=O)CC4)nc3n2[C@H]2CC[C@@H](C(N)=O)CC2)c(Cl)c1` (stereo partly drawn) [Example 668, (1s,4s)-4-(8-(2,6-dichloro-4-cyanophenylamino)-2-(4-(2,5-dioxopyrrolidin-1-yl)cyclohexylamino)-9H-purin-9-yl)cyclohexanecarboxamide], the IC50 was over 1 µM.
On the same count and under the same terms, the result for `CS(=O)(=O)N1CCC[C@@H](Nc2ncc3nc(Nc4c(Cl)cc(Cl)cc4Cl)n([C@H]4CC[C@@H](C(N)=O)CC4)c3n2)C1` [Example 700, (1S,4s)-4-(2-((R)-1-(methylsulfonyl)piperidin-3-ylamino)-8-(2,4,6-trichlorophenylamino)-9H-purin-9-yl)cyclohexanecarboxamide] reads 0.5 to 1 µM; that for `C[C@]1(C(N)=O)CC[C@@H](n2c(Nc3c(Cl)cc(C#N)cc3Cl)nc3cnc(N[C@@H]4CC[C@@H](O)C4)nc32)CC1` [Example 641, (1S,4s)-4-(8-(2,6-dichloro-4-cyanophenylamino)-2-((1R,3R)-3-hydroxycyclopentylamino)-9H-purin-9-yl)-1-methylcyclohexanecarboxamide], under 0.25 µM; that for `C[C@]1(C(N)=O)CC[C@@H](n2c(Nc3c(F)cc(Cl)cc3F)nc3cnc(N[C@H]4CCC[C@@H](O)C4)nc32)CC1` [Example 632, (1R,4s)-4-(8-(4-chloro-2,6-difluorophenylamino)-2-((1S,3R)-3-hydroxycyclohexylamino)-9H-purin-9-yl)-1-methylcyclohexanecarboxamide], 0.5 to 1 µM.
On the same count and under the same terms, the result for `C[C@]1(C(N)=O)CC[C@@H](n2c(Nc3c(F)cc(Cl)cc3F)nc3cnc(N[C@@H]4CCC[C@@H](O)C4)nc32)CC1` [Example 622, (1S,4s)-4-(8-(4-chloro-2,6-difluorophenylamino)-2-((1R,3R)-3-hydroxycyclohexylamino)-9H-purin-9-yl)-1-methylcyclohexanecarboxamide] reads 0.5 to 1 µM; that for `N#Cc1ccc(Nc2nc3cnc(NC4CCC(F)(F)CC4)nc3n2[C@H]2CC[C@@H](C(N)=O)CC2)c(Cl)c1Cl` [Example 695, (1s,4s)-4-(8-(2,3-dichloro-4-cyanophenylamino)-2-(4,4-difluorocyclohexylamino)-9H-purin-9-yl)cyclohexanecarboxamide], over 1 µM.

Values taken from patent publication US11590139B2, “Substituted aminopurine compounds, compositions thereof, and methods of treatment therewith” (Signal Pharmaceuticals, LLC, priority 2014, dated 2023).
